Laboratory results as given in patent publication US11338004B2, “Composition for preventing or treating cranial nerve disease comprising fomes fomentarius extract, fraction thereof, or compound isolated therefrom as active ingredient” (priority 2015, dated 2022).

Legend:
[1] = target: xanthine oxidase (Homo sapiens, UniProt P47989); assay: Xanthine oxidase inhibitory activity; format: biochemical
Procedure: 0.2 ml of the substrate solution in which 2 mM xanthine was dissolved was added to 0.1 ml of a sample solution and 0.6 ml of 0.1 M potassium phosphate buffer at pH 7.5, and 0.1 ml of 0.2 unit/ml xanthine oxidase was added thereto, followed by reaction at 37° C. for 5 minutes. Then, 1 ml of 1N HCl was added to terminate the reaction, and then the absorbance of the uric acid produced in the reaction solution was measured at 292 nm. The inhibitory activity of xanthine oxidase was shown by the absorbance reduction rate of the addition group and the non-addition group of the sample solution.
Xanthine oxidase acts as a rate-limiting enzyme in the terminal oxidation of all purines and is an enzyme that acts as a source of oxidizing agents such as superoxide radicals and hydrogen peroxide. The superoxide anion inhibition by xanthine/xanthine oxidase enzymes is shown by superoxide anion scavenging activity and xanthine oxidase inhibition and has biologically important meaning through inhibition of gout and formation of free radicals. The superoxide radical scavenging effects of 10, 20, 40, 80, 160, 320, and 640 μg mL-1 of each fraction extract of the Fomes fomentarius were compared using butylated hydroxy anisole (BHA) as a positive control group.
The superoxide radical scavenging effects of 10, 20, 40, 80, 160, 320, and 640 μg mL-1 of the Acer tegmentosum maxim extract were compared using butylated hydroxy anisole (BHA) as a positive control group.
The superoxide radical scavenging effects of 10, 20, 40, 80, 160, 320, and 640 μg mL-1 of the berchemia berchemiaefolia extract were compared using butylated hydroxy anisole (BHA) as a positive control group.
The superoxide radical scavenging effects of 10, 20, 40, 80, 160, 320, and 640 μg mL-1 of the Lithospermum erythrorhizon extract were compared using butylated hydroxy anisole (BHA) as a positive control group.

[2] = DPPH radical scavenging activity
Procedure: The present experiment used the property that the hydrazyl of diphenylpicrylhydrazyl (DPPH) used in the present experiment has a property of easily accepting a hydrogen atom since the nitrogen atom is unstable, so as to react with the antioxidant material to accept the hydrogen atom to lose its own orthochromatism.
(§1) First, in order to measure DPPH radical scavenging activity of the Fomes fomentarius fraction, 1.9 ml of 0.2 mM DPPH solution (99.5% ethanol) was added to 0.1 ml of solutions (control: 99.5% ethanol) in which the concentrated dried material of each Fomes fomentarius substance was prepared at 7 concentrations of 10, 20, 40, 80, 160, 320 and 640 μg/ml, respectively. The mixture was shaken with a vortex mixer for 10 seconds and then incubated at 37° C. for 30 minutes. Then, the absorbance was measured at 517 nm using a spectrophotometer.
As a positive control drug, L-ascorbic acid was prepared at […] of 10, 20, 40, 80, 160, 320, and 640 μg/mL (99.5% ethanol).
The present inventors measured DPPH radicals scavenging activity in the same manner as in Example <2-2> above using nonadecanone (2-nonadecanone) and docosenol (cis-13-Docosenol) compounds found in the above and Fomes fomentarius CHCl3 fraction of the present disclosure.
as §1, with “Acer tegmentosum maxim extract,” for “Fomes fomentarius fraction,”, “Acer tegmentosum maxim material” for “Fomes fomentarius substance”
As a positive control, L-ascorbic acid was prepared at […] of 10, 20, 40, 80, 160, 320, and 640 μg/mL (99.5% ethanol).
as §1, with “berchemia berchemiaefolia extract,” for “Fomes fomentarius fraction,”, “berchemia berchemiaefolia material” for “Fomes fomentarius substance”
as §1, with “Lithospermum erythrorhizon extract,” for “Fomes fomentarius fraction,”, “Lithospermum erythrorhizon material” for “Fomes fomentarius substance”

[3] = target: AChE (Homo sapiens, UniProt P22303); assay: Acetylcholinesterase inhibitory activity; format: biochemical; conditions: read-out: acetylcholinesterase inhibitory activity (%)
Procedure: AChE and acetylthocholine iodine (ATC) were dissolved in 100 mM phosphate buffer (pH 8.0) to prepare 0.25 U/mL and 75 mM, respectively. […] 2.8 mL of phosphate buffer (100 mM, pH 8.0), 30 μL of AChE (0.25 U/mL), and 100 μL of DTNB were added to 30 μL of the extract, and were mixed. Then, the mixture was preincubated at 37° C. for 10 minutes. Then, 30 μL of substrate ATC was added thereto and was reacted at 37° C. for 3 minutes, and then the absorbance was measured at 412 nm. As a control group, 30 μL of 100 mM phosphate buffer (pH 8.0) was added instead of the extract, and then was measured.

Chain of AChE (P22303 32-614): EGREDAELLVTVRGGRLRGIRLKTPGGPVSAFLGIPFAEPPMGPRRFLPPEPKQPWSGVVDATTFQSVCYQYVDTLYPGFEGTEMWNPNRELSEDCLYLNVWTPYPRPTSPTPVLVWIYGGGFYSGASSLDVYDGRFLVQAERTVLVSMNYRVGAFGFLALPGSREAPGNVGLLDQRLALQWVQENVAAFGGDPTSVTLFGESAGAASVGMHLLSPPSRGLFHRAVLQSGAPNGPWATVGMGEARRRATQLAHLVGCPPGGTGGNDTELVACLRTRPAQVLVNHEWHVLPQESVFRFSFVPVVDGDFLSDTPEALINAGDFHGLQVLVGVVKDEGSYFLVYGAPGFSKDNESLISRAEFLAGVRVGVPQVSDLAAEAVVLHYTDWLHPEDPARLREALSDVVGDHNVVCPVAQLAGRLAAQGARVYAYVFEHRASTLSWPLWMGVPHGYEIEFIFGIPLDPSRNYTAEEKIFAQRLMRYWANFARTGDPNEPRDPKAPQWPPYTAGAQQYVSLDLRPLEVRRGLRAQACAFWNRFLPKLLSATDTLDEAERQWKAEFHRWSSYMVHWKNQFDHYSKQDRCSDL
Chain of xanthine oxidase (P47989 whole entry, species assumed): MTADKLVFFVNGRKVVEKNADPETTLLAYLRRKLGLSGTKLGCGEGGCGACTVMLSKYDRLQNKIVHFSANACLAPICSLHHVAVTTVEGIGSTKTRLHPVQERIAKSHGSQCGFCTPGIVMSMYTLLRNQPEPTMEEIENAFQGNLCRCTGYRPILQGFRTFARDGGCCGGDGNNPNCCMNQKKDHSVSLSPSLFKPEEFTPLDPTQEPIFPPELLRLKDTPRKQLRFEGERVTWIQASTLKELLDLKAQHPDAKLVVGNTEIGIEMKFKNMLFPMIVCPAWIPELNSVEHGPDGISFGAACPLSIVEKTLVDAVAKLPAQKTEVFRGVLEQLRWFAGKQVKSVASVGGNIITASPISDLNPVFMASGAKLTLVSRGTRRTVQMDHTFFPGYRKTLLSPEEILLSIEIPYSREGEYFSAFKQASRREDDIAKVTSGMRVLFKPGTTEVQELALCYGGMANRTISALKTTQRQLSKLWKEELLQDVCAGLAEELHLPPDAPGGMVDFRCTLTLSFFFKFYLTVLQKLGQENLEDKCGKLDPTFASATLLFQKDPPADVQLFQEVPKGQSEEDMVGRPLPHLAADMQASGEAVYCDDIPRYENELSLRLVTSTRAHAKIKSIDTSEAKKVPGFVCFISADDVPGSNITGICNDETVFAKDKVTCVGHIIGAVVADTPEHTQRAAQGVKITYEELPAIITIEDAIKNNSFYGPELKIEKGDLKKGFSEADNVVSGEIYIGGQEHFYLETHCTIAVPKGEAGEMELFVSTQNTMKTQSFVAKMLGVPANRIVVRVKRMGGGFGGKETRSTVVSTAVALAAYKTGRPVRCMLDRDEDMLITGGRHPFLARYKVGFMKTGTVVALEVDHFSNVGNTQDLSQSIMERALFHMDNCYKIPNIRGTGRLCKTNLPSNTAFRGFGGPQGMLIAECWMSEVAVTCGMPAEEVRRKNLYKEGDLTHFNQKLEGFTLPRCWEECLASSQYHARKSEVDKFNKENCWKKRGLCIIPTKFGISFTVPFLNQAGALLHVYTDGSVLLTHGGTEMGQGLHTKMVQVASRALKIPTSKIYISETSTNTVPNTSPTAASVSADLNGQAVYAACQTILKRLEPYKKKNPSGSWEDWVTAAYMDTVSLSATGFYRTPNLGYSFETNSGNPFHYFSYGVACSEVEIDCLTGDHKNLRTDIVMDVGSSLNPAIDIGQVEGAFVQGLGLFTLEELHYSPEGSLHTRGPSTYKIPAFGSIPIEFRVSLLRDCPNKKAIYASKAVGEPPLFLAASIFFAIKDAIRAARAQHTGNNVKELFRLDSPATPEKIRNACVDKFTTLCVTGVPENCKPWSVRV

COc1ccc(O)c(C(C)(C)C)c1 [BHA, butylated hydroxyanisole]
xanthine oxidase inhibitory activity ([1]; 10 μg/mL): 24.1±0.1 | xanthine oxidase inhibitory activity ([1]; 20 μg/mL): 35.8±0.3 | xanthine oxidase inhibitory activity ([1]; 40 μg/mL): 58.1±0.4 | xanthine oxidase inhibitory activity ([1]; 80 μg/mL): 68.1±0.5 | xanthine oxidase inhibitory activity ([1]; 160 μg/mL): 76.1±0.8 | xanthine oxidase inhibitory activity ([1]; 320 μg/mL): 83.5±1.2 | xanthine oxidase inhibitory activity ([1]; 640 μg/mL): 85.6±1.3 | xanthine oxidase inhibition of the positive control group ([1]; concentration not stated (Example 2-18)): 94.1%

O=C1O[C@H]([C@@H](O)CO)C(O)=C1O [ascorbic acid, L-ascorbic acid, reference compound]
DPPH radical scavenging activity (% antioxidant activity) ([2]; 10 μg/mL): 70.5±4.5% and about 70.5% | DPPH radical scavenging activity (% antioxidant activity) ([2]; 20 μg/mL): 71.8±12.5% and about 71.8% | DPPH radical scavenging activity (% antioxidant activity) ([2]; 40 μg/mL): 74.1±8.2% and about 74.1% | DPPH radical scavenging activity (% antioxidant activity) ([2]; 80 μg/mL): 77.8±7.6% and about 77.8% | DPPH radical scavenging activity (% antioxidant activity) ([2]; 160 μg/mL): 80.6±4.5% and about 80.6% | DPPH radical scavenging activity (% antioxidant activity) ([2]; 320 μg/mL): 83.2±9.6% and about 83.2% | DPPH radical scavenging activity (% antioxidant activity) ([2]; 640 μg/mL): 84.5±7.7% and about 84.5% | inhibition at 10 µg/mL ([1]; 10 μg/mL): 24.1 ± 1.8% | inhibition at 20 µg/mL ([1]; 20 μg/mL): 35.1 ± 2.5% | inhibition at 40 µg/mL ([1]; 40 μg/mL): 58.1 ± 0.9% | inhibition at 80 µg/mL ([1]; 80 μg/mL): 68.1 ± 1.1% | inhibition at 160 µg/mL ([1]; 160 μg/mL): 76.1 ± 2.5% | inhibition at 320 µg/mL ([1]; 320 μg/mL): 83.5 ± 3.5% | inhibition at 640 µg/mL ([1]; 640 μg/mL): 85.6 ± 2.8% | inhibition at 10 µg/mL [3]: 35.8 ± 3.5% | inhibition at 20 µg/mL [3]: 45.1 ± 4.5% | inhibition at 40 µg/mL [3]: 51.8 ± 6.5% | inhibition at 80 µg/mL [3]: 61.1 ± 4.1% | inhibition at 160 µg/mL [3]: 61.9 ± 3.8% | inhibition at 320 µg/mL [3]: 76.1 ± 4.6% | inhibition at 640 µg/mL [3]: 87.9 ± 5.6%
